From patent US20160220542A1, “SYNERGISTIC ACTIVITY OF MODULATORS OF THE NO METABOLISM AND OF NADPH OXIDASE IN THE SENSITISATION OF TUMOR CELLS” (Universitaetsklinikum Freiburg, priority 2010, published 2016)

Legend:
[1] = tested on: human lymphoma line Gumbus; test: catalase deactivation of tumour cells (hydrogen peroxide induced apoptosis); format: cell-based; conditions: 1.5 hours
Protocol: 25 000 cells of the human lymphoma line Gumbus/100 μl medium had the stated concentrations of hydrogen peroxide added without 3-AT or in the presence of 50 mM or 100 mM of the catalase inhibitor 3-AT. After 1.5 hours in duplicate preparations the apoptosis induction was determined.
FIG. 14B: Gumbus cells were pre-incubated without Taxol (control) or with 10 μg/ml Taxol for 30 minutes at 37° C. Parallel preparations were either free of further substances or contained 2 mM histidine (singlet oxygen-receptor), 25 μM FeTPPS (catalytically-acting peroxynitrite destroyer) or 25 U/ml catalase (CAT). Following pre-incubation the cells were separated by centrifugation, absorbed in fresh medium and the stated concentrations of hydrogen peroxide added. After 1.5 hours the assessment was performed in the duplicate preparations.

[2] = tested on: transformed rat fibroblast line 208Fsrc3; test: autocrine, ROS mediated apoptosis induction in transformed cells; format: cell-based; conditions: 22 hours; for effect on autocrine apoptosis: 50 mM taurine, 150 μM ABH or 10 mM mannitol; for effect of higher SOD concentrations on apoptosis: concentrations above maximum inhibition
Protocol: 12 500 cells of the transformed rat fibroblast line 208Fsrc3 per 100 μl complete medium were sown in 96 hole plates. Following growth 20 ng/ml TGF-beta-1 were added to all preparations. To the preparations the stated concentrations of Cu SOD (from bovine erythroctes) or Mn SOD (from E. coli) were added. Some of the preparations received 50 mM of the HOCl receptor taurine (TAU), 150 μM of the peroxidase inhibitor 4-aminobenzoylhydrazide (ABH) or 10 mM of the hydroxyl radical scavenger mannitol. After 22 hours the percentages of apoptotic cells were determined on the basis of the conventional apoptosis characteristics of nuclear condensation, nuclear fragmentation or membrane blebbing in each case in duplicate preparations.

NO dioxygenase (NOD) = test: inhibition of NO dioxygenase (DEA NONOate-dependent apoptosis in MKN-45 cells); format: cell-based; conditions: for effect on available NO concentration (NOD inhibition): as Example 10, 3 hours; for available NO concentration through inhibition of the NOD: broad concentration range
Protocol: This test is based on the fact that NOD also effectively converts exogenously added NO into nitrate and thus in suitable cell systems (such as for example the tumour cell line MKN-45) can prevent apoptosis induction by NO/peroxynitrite.
This rules out a test substance having an influence over the reaction as a whole, through modulation of the catalase activity. The hydrogen peroxide released following the catalase inhibition is fully decomposed by 20-25 μM of the catalase mimetic EUK-134 (similar to the abovementioned EUK-8, but with a lower peroxidise activity). In this way both the HOCl pathway and the consumption of NO by hydrogen peroxide are prevented. For the modulation of the available NO concentration with the known mechanisms now only the NOD remains. If this is inhibited then the addition of exogenous NO leads to an increased apoptosis induction.
12 500 MKN-45 cells in 100 μl Medium had 200 mM 3-AT, 2.4 mM NAME, 25 μM EUK-134 and the stated concentrations of epothilone B (“EPO”) added. […] Then the stated concentrations of the NO donor DEANONOate were added and the preparations were incubated for a further 2 hours at 37° C. before the percentages of apoptotic cells were determined.
The experiment was carried out in the same way as described in FIG. 10, but with the difference that the stated concentrations of DADS (FIG. 11A) or Taxol (FIG. 11B) were used and the determination of the apoptotic cells took place after 3 hours.

[3] = tested on: extracellular superoxide anion production of MKN-45 cells; test: extracellular superoxide anion production of MKN-45 cells (Cu SOD bell curve shift); format: cell-based; conditions: for stimulation of the NADPH oxidase: higher concentration range of the substances
MKN-45 cells = test: apoptosis induction in MKN-45 tumour cells, single substances and combinations; format: cell-based
Protocol: 12 500 MKN-45 cells in 100 μl medium were prepared with the stated concentrations of arginine in combination with 0.2 or 20 μM resveratrol. Control preparations received arginine at between 0 and 5 mM, but remained free of resveratrol. After 4.5 hours the percentages of apoptotic cells were determined (duplicate preparations).
In addition, 25 μM caspase-8 inhibitor were added or not added to the stated combinations of arginine and resveratrol. Assessment after 4.5 hours.
12 500 MKN-45 cells in 100 μl had 10 μg/ml Taxol or 0.013 μg/ml Taxol in combination or not with the stated concentrations of resveratrol added. […] After 4.5 hours in duplicate preparations the percentages of apoptotic cells were determined.
12 500 MKN-45 cells in 100 μl medium received either no addition of substances, 25 ng/ml epothilone B, 0.75 ng/ml epothilone B, 25 μg/ml resveratrol or the combination of 0.75 ng/ml epothilone B with 25 μg/ml resveratrol. After 3 hours the percentages of apoptotic cells were determined in duplicate preparations.
12 500 MKN 45 cells in 100 μl medium received none of the stated additives. After 3 hours an assessment was made of the duplicate preparations.

[4] = tested on: transformed 208Fsrc3 cells; test: apoptosis induction mediated by added myeloperoxidase (MPO); format: cell-based, rat; conditions: 200 mU/ml MPO; 100 U/ml catalase, 50 mM taurine, 10 mM mannitol; 5 hours
Protocol: Instead of the autocrine apoptosis induction illustrated in Example 1, in the experiment illustrated in Example 2 the HOCl signalling pathway is accelerated by addition of exogenous MPO (FIG. 2A) or the NO/peroxynitrite pathway is induced by addition of the rapidly decomposing NO donor DEA NONOate.
12 500 transformed 208Fsrc3 cells per preparation (96 hole plate, 100 μl medium) were sown. Under A these also received 200 mU/ml MPO, and under B additionally 1.5 mM DEA NONOate. Control preparations remained free of MPO or DEA NONOate. In Part A additionally 100 U/ml catalase (KAT), 50 mM taurine (TAU), and 10 mM mannitol (MANN) were used.
In FIG. 2B the addition took place of 25 μM of the catalytically effective peroxynitrite destroyer FeTPPS. The duplicate preparations under A were assessed after 5 hours, and those under B after just 3 hours. […] The inhibitors confirm the involvement of hydrogen peroxide (inhibition by catalase), HOCl (inhibition by taurine), and hydroxyl radicals (inhibition by mannitol). Again a bell curve was obtained, the right part of which is dependent upon the availability of HOCl and the effect of hydroxyl radicals.

208Fsrc3 cells = test: EUK-8-mediated apoptosis induction, Cu SOD bell curve; format: cell-based, rat
Protocol: 12 500 208Fsrc3 cells in 100 μl (96 hole plate) had increasing concentrations of Cu SOD added in the presence of 120 μM EUK-8. After 5 hours the percentage of apoptotic cells was determined in duplicate preparations.
The indicated cell counts (208Fsrc3) in 100 μl medium had increasing concentrations of Cu SOD added in the presence of 120 μM EUK-8. After 1.5 hours in duplicate preparations the percentages of apoptotic cells were determined. There is a direct dependency between the SOD concentration at the vertex and the number of cells per preparation. Since this in turn determines the total concentration of available superoxide anions, there is a correlation between SOD concentration at the vertex and the superoxide anions concentration achieved.

Nc1nc[nH]n1 [3-AT, 3-aminotriazole]
effect on catalase protection against exogenous hydrogen peroxide ([1]; 50 mM or 100 mM 3-AT): can be reversed

NNC(=O)c1ccc(N)cc1 [ABH, 4-aminobenzoylhydrazide]
effect on autocrine apoptosis [2]: completely inhibited

C=CCSSCC=C [DADS, diallyl disulfide]
effect on available NO concentration (NOD inhibition) (NO dioxygenase (NOD)): led to an increase in the available NO concentration

CC(=O)O[C@H]1C(=O)[C@@]2(C)[C@H]([C@H](OC(=O)c3ccccc3)[C@]3(O)C[C@H](OC(=O)[C@H](O)[C@@H](NC(=O)c4ccccc4)c4ccccc4)C(C)=C1C3(C)C)[C@]1(OC(C)=O)CO[C@@H]1C[C@@H]2O [Taxol]
effect on catalase protection against exogenous hydrogen peroxide ([1]; pre-incubation with 10 μg/ml Taxol for 30 minutes, washed): has the same effect as 3-AT | stimulation of the NADPH oxidase compared with epothilone B ([3]; data not shown): behaves in the same way | stimulation of the NADPH oxidase [3]: simultaneous stimulation of the NADPH oxidase | effect on available NO concentration (NOD inhibition) (NO dioxygenase (NOD)): led to an increase in the available NO concentration | available NO concentration through inhibition of the NOD (NO dioxygenase (NOD)): increase in the available NO concentration | apoptosis induction (MKN-45 cells; 0.013 μg/ml Taxol alone, 4.5 hours): induced no apoptosis | apoptosis induction (MKN-45 cells; 10 μg/ml Taxol alone, 4.5 hours): clear apoptosis induction

C=CCN=C=S [allyl isothiocyanate]
stimulation of the NADPH oxidase [3]: simultaneous stimulation of the NADPH oxidase | available NO concentration through inhibition of the NOD (NO dioxygenase (NOD)): increase in the available NO concentration

N=C(N)NCCC[C@H](N)C(=O)O [arginine]
apoptosis induction by arginine alone (MKN-45 cells): concentration-dependent apoptosis induction | dependence of apoptosis on caspase-8 / FAS (MKN-45 cells): strictly dependent upon the involvement of a caspase-8-mediated step

Oc1cc(O)c2cc(O)c(-c3ccc(O)c(O)c3)[o+]c2c1.[Cl-] [cyanidin chloride]
dependence of the effect on caspase-8 (MKN-45 cells; high cyanidin chloride concentration, 3 hours): dependent upon caspase-8

C/C(=C\c1csc(C)n1)[C@@H]1C[C@@H]2O[C@]2(C)CCC[C@H](C)[C@H](O)[C@@H](C)C(=O)C(C)(C)[C@@H](O)CC(=O)O1 [epothilone B]
effect on superoxide anion production [3]: did not demonstrate any effect | stimulation of the NADPH oxidase [3]: simultaneous stimulation of the NADPH oxidase | increase in superoxide anion production ([3]; highest concentration of epothilone B, 150 mM 3-AT, 8 hours): fourfold | effect on DEA NONOate-dependent apoptosis (NOD inhibition) (NO dioxygenase (NOD); all concentrations used, 200 mM 3-AT, 2.4 mM NAME, 25 μM EUK-134, 2 hours): led to an increase in the DEA-NONOATE-dependent apoptosis | available NO concentration through inhibition of the NOD (NO dioxygenase (NOD)): increase in the available NO concentration | apoptosis induction (MKN-45 cells; 0.75 ng/ml epothilone B alone, 3 hours): neither the low epothilone B concentration nor resveratrol on its own was able to induce apoptosis

OC[C@@H](O)[C@@H](O)[C@H](O)[C@H](O)CO [mannitol]
effect on MPO-mediated apoptosis (HOCl pathway) [4]: inhibition | effect on autocrine apoptosis [2]: completely inhibited

Oc1ccc(C=Cc2cc(O)cc(O)c2)cc1 [resveratrol]
increase in superoxide anion production ([3]; 4 or 20 μg/ml resveratrol, 120 μM EUK-8, 4 hours): 8-16 times | inhibitory capability of the NOD (NO dioxygenase (NOD); data not shown): no indications of an inhibitory capability of the NOD | apoptosis induction (MKN-45 cells; 25 μg/ml resveratrol alone, 3 hours): neither the low epothilone B concentration nor resveratrol on its own was able to induce apoptosis | apoptosis induction by resveratrol alone (MKN-45 cells; 0.2 or 20 μM resveratrol, 4.5 hours): little more than background apoptosis | apoptosis induction (MKN-45 cells; each stated concentration of resveratrol alone, 4.5 hours): induced no apoptosis

NCCS(=O)(=O)O [taurine]
effect on MPO-mediated apoptosis (HOCl pathway) [4]: inhibition | effect on autocrine apoptosis [2]: completely inhibited

Cu SOD: Cu-containing superoxide dismutase from bovine erythroctes
effect of Cu SOD on EUK-8-mediated apoptosis (208Fsrc3 cells; 120 μM EUK-8, 12 500 cells, 5 hours): leads to a bell curve | SOD concentration at the vertex (maximum inhibition) (208Fsrc3 cells; 6 250 cells, 120 μM EUK-8, 1.5 hours): 0.57 U/ml | effect of higher SOD concentrations on apoptosis [2]: renewed increase in the apoptosis

Photofrin
stimulation of the NADPH oxidase by singlet oxygen ([3]; 1 μg/ml Photofrin exposed to light, 100 mM 3-AT, 5 hours): significant stimulation of the NADPH oxidase

catalase
effect on MPO-mediated apoptosis (HOCl pathway) [4]: inhibition

B1: Mn SOD: Mn-containing superoxide dismutase from E. coli (protein, UniProt P00448 2-206, looked up)
Superoxide dismutase [Mn]: SYTLPSLPYAYDALEPHFDKQTMEIHHTKHHQTYVNNANAALESLPEFANLPVEELITKLDQLPADKKTVLRNNAGGHANHSLFWKGLKKGTTLQGDLKAAIERDFGSVDNFKAEFEKAAASRFGSGWAWLVLKGDKLAVVSTANQDSPLMGEAISGASGFPIMGLDVWEHAYYLKFQNRRPDYIKEFWNVVNWDEAAARFAAKK
effect of higher SOD concentrations on apoptosis [2]: once the maximum inhibition has been reached this is maintained

B2: MPO: exogenous myeloperoxidase (protein, UniProt P05164 165-745, looked up)
Myeloperoxidase: VTCPEQDKYRTITGMCNNRRSPTLGASNRAFVRWLPAEYEDGFSLPYGWTPGVKRNGFPVALARAVSNEIVRFPTDQLTPDQERSLMFMQWGQLLDHDLDFTPEPAARASFVTGVNCETSCVQQPPCFPLKIPPNDPRIKNQADCIPFFRSCPACPGSNITIRNQINALTSFVDASMVYGSEEPLARNLRNMSNQLGLLAVNQRFQDNGRALLPFDNLHDDPCLLTNRSARIPCFLAGDTRSSEMPELTSMHTLLLREHNRLATELKSLNPRWDGERLYQEARKIVGAMVQIITYRDYLPLVLGPTAMRKYLPTYRSYNDSVDPRIANVFTNAFRYGHTLIQPFMFRLDNRYQPMEPNPRVPLSRVFFASWRVVLEGGIDPILRGLMATPAKLNRQNQIAVDEIRERLFEQVMRIGLDLPALNMQRSRDHGLPGYNAWRRFCGLPQPETVGQLGTVLRNLKLARKLMEQYGTPNNIDIWMGGVSEPLKRKGRVGPLLACIIGTQFRKLRDGDRFWWENEGVFSMQQRQALAQISLPRIICDNTGITTVSKNNIFMSNSYPRDFVNCSTLPALNLASWREAS
effect on MPO-mediated apoptosis (HOCl pathway) [4]: accelerates the HOCl pathway
